Values of other authors as cited in patent US5017613A, “Valproic acid preparations” (Sanofi, S. A., priority 1983, dated 1991).

Conditions: after oral administration

CCCC(CCC)C(=O)O [valproic acid, Dipropylacetic or valproic acid]
bioavailability in the blood of valproic acid: ~100%
